Assay results taken from patent US20070167513A1, “Crystalline forms of duloxetine free base” (priority 2004, published 2007).
Structures can show the parent of a compound that is named as a salt. Where two headings read alike, the source gives them in different places.

[1] = before exposure to heat or light
[2] = before exposure to heat or light, Hydrochloride
[3] = stress condition 45° C., Hydrochloride
[4] = stress condition 60° C., Hydrochloride
[5] = stress condition UV, Hydrochloride

SMILES | Description [1] | SMI (single maximum impurity) [2] [%] | Total imp [2] [%] | Description [3] | SMI (single maximum impurity) [3] [%] | Total imp [3] [%] | Description [4] | SMI (single maximum impurity) [4] [%] | Total imp [4] [%] | Description [5] | SMI (single maximum impurity) [5] [%] | Total imp [5] [%] | resistance to degradation (compared with duloxetine hydrochloride prepared by conventional prior art methods)
CNCC[C@H](Oc1cccc2ccccc12)c1cccs1 [[…] (from prior art)] [Duloxetine Hydrochloride, reference compound] | White powder | 0.20 | 0.48 | Cream coloured | 0.19 | 0.65 | Light pink | 0.19 | 0.70 | Light brown | 0.19 | 0.66 | –
CNCC[C@H](Oc1cccc2ccccc12)c1cccs1 [DULOXETINE HCI (from free base), Duloxetine Hydrochloride] | White powder | 0.05 | 0.11 | White powder | 0.07 | 0.12 | White powder | 0.07 | 0.12 | Cream | 0.06 | 0.11 | more resistant to degradation
